Consider seven molecules from ChEMBL document CHEMBL5338805, “Discovery of the First Subnanomolar PPARα/δ Dual Agonist for the Treatment of Cholestatic Liver Diseases” (J Med Chem, 2023).

SMILES strings stand for the structures.

Format in all cases: cell-based
Experiment [1] addresses T1, Peroxisome proliferator-activated receptor gamma (Homo sapiens, UniProt P37231).
T1 sequence (P37231 whole entry): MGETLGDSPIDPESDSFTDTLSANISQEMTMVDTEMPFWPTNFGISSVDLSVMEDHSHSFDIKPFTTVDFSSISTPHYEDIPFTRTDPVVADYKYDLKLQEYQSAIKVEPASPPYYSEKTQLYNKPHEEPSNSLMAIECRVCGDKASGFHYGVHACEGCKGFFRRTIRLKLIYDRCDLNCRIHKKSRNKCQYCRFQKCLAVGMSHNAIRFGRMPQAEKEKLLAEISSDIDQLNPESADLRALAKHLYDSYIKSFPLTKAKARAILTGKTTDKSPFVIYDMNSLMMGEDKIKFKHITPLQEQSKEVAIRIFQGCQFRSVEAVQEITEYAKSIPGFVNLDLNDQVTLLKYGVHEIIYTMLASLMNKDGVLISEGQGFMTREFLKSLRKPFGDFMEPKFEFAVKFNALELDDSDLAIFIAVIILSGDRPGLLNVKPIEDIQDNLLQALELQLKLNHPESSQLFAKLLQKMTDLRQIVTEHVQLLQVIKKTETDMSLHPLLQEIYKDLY
Description: Agonist activity at human PPARgamma transfected in african green monkey COS7 cells assessed transactivation incubated for 16 hrs by luciferase assay.

The target of experiment [2] is Peroxisome proliferator-activated receptor delta (Homo sapiens, UniProt Q03181). The experiment can be described thus: Agonist activity at human PPARdelta transfected in african green monkey COS7 cells assessed transactivation incubated for 16 hrs by luciferase assay.
Experiment [3] has as its target T2, Peroxisome proliferator-activated receptor alpha (Homo sapiens, UniProt Q07869).
T2 sequence (Q07869 whole entry): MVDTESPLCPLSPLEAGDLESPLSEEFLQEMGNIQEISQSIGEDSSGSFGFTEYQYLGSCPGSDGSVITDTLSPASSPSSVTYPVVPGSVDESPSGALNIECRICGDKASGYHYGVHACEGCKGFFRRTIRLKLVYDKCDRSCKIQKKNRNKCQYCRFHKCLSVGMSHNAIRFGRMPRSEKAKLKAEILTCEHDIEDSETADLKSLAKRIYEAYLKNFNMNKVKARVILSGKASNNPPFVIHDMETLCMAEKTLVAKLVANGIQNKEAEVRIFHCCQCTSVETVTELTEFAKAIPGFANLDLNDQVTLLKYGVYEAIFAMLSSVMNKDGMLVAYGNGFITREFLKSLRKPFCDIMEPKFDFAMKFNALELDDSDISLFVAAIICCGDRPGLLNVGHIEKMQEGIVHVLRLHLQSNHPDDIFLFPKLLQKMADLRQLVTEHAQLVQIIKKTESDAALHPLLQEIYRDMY
Description: Agonist activity at human PPARalpha transfected in african green monkey COS7 cells assessed transactivation incubated for 16 hrs by luciferase assay.

Chain of Peroxisome proliferator-activated receptor delta (Q03181 whole entry): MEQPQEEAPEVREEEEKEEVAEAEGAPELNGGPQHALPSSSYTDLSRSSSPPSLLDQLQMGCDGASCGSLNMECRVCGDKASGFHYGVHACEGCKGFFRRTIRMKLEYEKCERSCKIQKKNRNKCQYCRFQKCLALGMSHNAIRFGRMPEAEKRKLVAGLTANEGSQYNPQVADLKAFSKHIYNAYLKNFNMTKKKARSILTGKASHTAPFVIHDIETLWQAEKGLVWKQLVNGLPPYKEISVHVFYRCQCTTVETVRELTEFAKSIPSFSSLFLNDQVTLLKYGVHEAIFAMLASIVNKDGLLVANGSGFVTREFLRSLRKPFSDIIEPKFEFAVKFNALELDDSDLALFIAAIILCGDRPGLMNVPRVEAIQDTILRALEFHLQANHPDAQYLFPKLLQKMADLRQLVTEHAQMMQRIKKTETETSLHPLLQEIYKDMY

Regarding `Cc1cc(CN2C(=O)CN(c3ccc(OC(F)(F)F)cc3)C2=O)cc(C)c1OC(C)(C)C(=O)O`, a half-maximal response in experiment [1] (EC50) required 1390 nM.
Turning to `Cc1cc(CN2C(=O)CN(c3ccc(C(F)(F)F)cc3)C2=O)cc(C)c1OC(C)C(=O)O` (stereo unspecified), the half-maximal effective concentration (EC50) in experiment [2] was 8.4 nM; in experiment [1], above 5000 nM.
With `CSc1ccc(N2CC(=O)N(Cc3cc(C)c(OC(C)(C)C(=O)O)c(C)c3)C2=O)cc1`, the EC50 in experiment [2] came to 8.2 nM; in experiment [1] it was 1170 nM; in experiment [3], 2.7 nM.
In turn, `Cc1cc(CCN2C(=O)CN(c3ccc(C(F)(F)F)cc3)C2=O)cc(C)c1OC(C)(C)C(=O)O` yielded an EC50 in experiment [1] of 277 nM.
Molecule `Cc1cc(Cn2ncn(-c3ccc(OC(F)(F)F)cc3)c2=O)cc(C)c1OC(C)(C)C(=O)O` came in with a 50% effective concentration (EC50) in experiment [3] of 7.4 nM.
On to `Cc1cc(CN2C(=O)CN(c3ccccc3C(F)(F)F)C2=O)cc(C)c1OC(C)(C)C(=O)O`, for which the EC50 in experiment [1] and in experiment [3] was above 5000 nM in each case.
`Cc1cc(N2C(=O)CN(c3ccc(C(F)(F)F)cc3)C2=O)cc(C)c1OC(C)(C)C(=O)O`: the concentration for a half-maximal effect (EC50) in experiment [1] is above 5000 nM.
